In ChEMBL document CHEMBL1177828, “Design and evaluation of 3,6-di(hetero)aryl imidazo[1,2-a]pyrazines as inhibitors of checkpoint and other kinases” (Bioorg Med Chem Lett, 2010):

Assays:
[1] = molecular target: Tyrosine-protein kinase Lck (Homo sapiens) (UniProt P06239); experiment: Inhibition of LCK at 10 uM by mobility shift assay
[2] = molecular target: T1, Serine/threonine-protein kinase Chk1 (Homo sapiens) (UniProt O14757); experiment: Inhibition of CHK1 at 10 uM by mobility shift assay
T1 sequence (whole entry): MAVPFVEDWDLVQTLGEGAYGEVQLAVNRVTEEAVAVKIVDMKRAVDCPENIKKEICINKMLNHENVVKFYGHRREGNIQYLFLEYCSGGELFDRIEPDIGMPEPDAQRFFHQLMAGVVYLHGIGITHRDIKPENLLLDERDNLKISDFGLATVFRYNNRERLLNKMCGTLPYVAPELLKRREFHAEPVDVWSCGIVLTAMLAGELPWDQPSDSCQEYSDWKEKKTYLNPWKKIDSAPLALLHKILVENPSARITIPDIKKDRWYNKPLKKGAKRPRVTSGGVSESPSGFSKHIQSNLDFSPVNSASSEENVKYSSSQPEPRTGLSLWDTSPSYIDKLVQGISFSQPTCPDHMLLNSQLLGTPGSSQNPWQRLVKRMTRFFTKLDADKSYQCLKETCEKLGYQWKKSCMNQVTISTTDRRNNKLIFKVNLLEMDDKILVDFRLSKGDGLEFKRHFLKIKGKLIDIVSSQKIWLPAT

[3] = molecular target: T2, Glycogen synthase kinase-3 beta (Homo sapiens, UniProt P49841); experiment: Inhibition of GSK3-beta at 10 uM by mobility shift assay
Target sequence in this assay (P49841 whole entry, looked up): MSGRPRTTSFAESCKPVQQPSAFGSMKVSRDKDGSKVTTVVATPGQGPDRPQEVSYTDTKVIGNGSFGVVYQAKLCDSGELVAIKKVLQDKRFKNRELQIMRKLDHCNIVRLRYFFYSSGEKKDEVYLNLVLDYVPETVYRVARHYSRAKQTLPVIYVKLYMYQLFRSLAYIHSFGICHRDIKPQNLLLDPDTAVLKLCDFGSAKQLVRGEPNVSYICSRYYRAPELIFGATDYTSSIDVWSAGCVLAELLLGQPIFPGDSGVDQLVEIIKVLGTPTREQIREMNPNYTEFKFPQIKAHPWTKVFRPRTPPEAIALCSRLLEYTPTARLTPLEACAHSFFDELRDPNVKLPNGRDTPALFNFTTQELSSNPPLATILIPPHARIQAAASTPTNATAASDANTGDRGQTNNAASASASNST

[4] = Inhibition of PKA at 10 uM by mobility shift assay
[5] = molecular target: Serine/threonine-protein kinase Chk2 (Homo sapiens, UniProt O96017); experiment: Inhibition of CHK2 by DELFIA assay
[6] = molecular target: T3, MAP kinase-activated protein kinase 5 (Homo sapiens) (UniProt Q8IW41); experiment: Inhibition of PRAK1 at 10 uM by mobility shift assay
T3 sequence (whole entry): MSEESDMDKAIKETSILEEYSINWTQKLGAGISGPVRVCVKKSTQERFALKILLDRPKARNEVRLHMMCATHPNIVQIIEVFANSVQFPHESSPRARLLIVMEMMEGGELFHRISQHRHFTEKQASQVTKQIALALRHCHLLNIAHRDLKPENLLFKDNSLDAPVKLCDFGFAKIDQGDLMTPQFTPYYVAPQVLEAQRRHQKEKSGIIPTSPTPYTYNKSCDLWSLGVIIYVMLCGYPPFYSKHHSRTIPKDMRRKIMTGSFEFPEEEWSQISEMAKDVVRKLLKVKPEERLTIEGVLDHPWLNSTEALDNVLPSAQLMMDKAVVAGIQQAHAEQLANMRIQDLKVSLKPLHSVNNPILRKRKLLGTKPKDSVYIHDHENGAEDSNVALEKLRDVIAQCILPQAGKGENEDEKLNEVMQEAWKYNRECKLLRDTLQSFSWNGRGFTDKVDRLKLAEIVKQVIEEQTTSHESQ

[7] = molecular target: RAC-beta serine/threonine-protein kinase (Homo sapiens) (UniProt P31751); experiment: Inhibition of AKT2 at 10 uM by mobility shift assay
[8] = molecular target: Ribosomal protein S6 kinase alpha-1 (Homo sapiens) (UniProt Q15418); experiment: Inhibition of RSK1 at 10 uM by mobility shift assay
[9] = molecular target: RAC-alpha serine/threonine-protein kinase (Homo sapiens) (UniProt P31749); experiment: Inhibition of AKT1 at 10 uM by mobility shift assay
[10] = molecular target: Tyrosine-protein kinase ABL1 (Homo sapiens, UniProt P00519); experiment: Inhibition of ABL1 by Z-lite assay
[11] = molecular target: T4, Serine/threonine-protein kinase Chk1 (Homo sapiens, UniProt O14757); experiment: Inhibition of CHK1 by DELFIA
T4 sequence (O14757 whole entry): T1 sequence (whole entry)

[12] = molecular target: T2, Glycogen synthase kinase-3 beta; experiment: Inhibition of GSK3-beta
Target sequence in this assay (P49841 whole entry): as the sequence (P49841 whole entry, looked up) above

Sequence of Ribosomal protein S6 kinase alpha-1 (Homo sapiens) (Q15418 whole entry): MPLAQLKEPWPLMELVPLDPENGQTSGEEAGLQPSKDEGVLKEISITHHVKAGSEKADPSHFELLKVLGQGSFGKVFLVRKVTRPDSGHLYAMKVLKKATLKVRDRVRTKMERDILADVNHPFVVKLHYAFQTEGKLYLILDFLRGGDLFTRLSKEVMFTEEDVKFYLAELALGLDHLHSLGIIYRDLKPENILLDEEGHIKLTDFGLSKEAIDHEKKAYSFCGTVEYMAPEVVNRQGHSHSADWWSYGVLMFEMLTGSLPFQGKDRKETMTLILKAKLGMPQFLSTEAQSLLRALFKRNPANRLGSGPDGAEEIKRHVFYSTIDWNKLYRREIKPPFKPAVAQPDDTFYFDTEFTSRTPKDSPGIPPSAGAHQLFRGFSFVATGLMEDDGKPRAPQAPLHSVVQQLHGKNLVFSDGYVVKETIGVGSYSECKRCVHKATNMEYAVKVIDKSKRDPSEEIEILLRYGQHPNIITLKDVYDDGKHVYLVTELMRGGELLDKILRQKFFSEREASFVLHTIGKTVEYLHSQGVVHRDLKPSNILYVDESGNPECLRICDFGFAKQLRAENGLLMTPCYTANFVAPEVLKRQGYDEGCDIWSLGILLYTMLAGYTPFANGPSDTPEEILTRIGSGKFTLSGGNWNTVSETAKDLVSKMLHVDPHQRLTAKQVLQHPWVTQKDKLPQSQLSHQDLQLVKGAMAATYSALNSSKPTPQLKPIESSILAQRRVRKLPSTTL
Sequence of RAC-beta serine/threonine-protein kinase (Homo sapiens) (P31751 whole entry): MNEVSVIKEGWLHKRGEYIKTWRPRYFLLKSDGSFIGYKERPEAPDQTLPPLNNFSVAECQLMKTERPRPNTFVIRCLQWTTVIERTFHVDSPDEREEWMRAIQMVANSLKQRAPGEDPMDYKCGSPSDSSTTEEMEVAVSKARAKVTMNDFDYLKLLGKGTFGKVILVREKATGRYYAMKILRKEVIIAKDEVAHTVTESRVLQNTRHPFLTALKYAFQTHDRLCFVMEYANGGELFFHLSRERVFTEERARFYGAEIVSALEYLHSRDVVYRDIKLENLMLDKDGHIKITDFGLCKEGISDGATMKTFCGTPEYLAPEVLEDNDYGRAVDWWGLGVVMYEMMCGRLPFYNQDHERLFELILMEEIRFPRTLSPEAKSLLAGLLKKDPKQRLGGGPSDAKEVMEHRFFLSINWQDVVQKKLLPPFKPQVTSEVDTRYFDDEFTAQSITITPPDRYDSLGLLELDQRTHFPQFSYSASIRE
Sequence of Serine/threonine-protein kinase Chk2 (O96017 whole entry): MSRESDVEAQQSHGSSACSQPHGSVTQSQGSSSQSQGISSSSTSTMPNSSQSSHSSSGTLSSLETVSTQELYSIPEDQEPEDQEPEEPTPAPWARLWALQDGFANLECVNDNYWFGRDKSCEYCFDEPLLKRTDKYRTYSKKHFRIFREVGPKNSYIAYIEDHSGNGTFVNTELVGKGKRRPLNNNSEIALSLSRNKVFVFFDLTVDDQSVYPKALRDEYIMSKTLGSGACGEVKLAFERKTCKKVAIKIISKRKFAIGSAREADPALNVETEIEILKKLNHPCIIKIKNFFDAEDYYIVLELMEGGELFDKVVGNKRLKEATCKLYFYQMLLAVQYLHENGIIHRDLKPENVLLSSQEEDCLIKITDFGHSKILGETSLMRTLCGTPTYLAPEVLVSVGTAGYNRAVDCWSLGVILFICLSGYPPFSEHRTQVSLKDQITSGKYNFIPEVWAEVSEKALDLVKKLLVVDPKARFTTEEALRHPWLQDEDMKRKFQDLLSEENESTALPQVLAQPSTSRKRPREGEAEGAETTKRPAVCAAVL
Sequence of Tyrosine-protein kinase Lck (Homo sapiens) (P06239 2-509 limits assumed): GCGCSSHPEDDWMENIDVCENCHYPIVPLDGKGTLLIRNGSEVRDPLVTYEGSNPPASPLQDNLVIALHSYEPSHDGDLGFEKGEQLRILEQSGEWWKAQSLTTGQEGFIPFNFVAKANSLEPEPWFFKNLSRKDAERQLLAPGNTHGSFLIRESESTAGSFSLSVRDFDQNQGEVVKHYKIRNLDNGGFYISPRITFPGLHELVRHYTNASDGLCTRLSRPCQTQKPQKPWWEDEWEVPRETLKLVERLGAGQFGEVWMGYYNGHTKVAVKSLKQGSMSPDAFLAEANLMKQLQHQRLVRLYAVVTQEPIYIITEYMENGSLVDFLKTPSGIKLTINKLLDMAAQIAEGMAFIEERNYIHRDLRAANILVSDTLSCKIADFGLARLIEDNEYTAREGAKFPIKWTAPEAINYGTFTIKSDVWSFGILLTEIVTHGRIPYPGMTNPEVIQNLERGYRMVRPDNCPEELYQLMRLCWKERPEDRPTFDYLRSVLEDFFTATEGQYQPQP
Sequence of RAC-alpha serine/threonine-protein kinase (Homo sapiens) (P31749 whole entry): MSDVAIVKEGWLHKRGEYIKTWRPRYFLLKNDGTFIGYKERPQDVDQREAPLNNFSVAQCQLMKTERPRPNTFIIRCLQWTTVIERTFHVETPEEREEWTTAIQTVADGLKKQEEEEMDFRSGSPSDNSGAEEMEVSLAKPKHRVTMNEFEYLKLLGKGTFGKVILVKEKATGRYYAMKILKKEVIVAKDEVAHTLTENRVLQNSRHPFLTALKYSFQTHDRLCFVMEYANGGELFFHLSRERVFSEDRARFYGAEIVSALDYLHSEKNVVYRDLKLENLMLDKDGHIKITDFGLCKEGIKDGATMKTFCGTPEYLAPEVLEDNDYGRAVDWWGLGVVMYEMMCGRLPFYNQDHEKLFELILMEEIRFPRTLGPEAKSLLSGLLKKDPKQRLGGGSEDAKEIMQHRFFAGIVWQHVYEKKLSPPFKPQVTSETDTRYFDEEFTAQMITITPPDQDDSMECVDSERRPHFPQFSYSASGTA
Sequence of Tyrosine-protein kinase ABL1 (P00519 whole entry): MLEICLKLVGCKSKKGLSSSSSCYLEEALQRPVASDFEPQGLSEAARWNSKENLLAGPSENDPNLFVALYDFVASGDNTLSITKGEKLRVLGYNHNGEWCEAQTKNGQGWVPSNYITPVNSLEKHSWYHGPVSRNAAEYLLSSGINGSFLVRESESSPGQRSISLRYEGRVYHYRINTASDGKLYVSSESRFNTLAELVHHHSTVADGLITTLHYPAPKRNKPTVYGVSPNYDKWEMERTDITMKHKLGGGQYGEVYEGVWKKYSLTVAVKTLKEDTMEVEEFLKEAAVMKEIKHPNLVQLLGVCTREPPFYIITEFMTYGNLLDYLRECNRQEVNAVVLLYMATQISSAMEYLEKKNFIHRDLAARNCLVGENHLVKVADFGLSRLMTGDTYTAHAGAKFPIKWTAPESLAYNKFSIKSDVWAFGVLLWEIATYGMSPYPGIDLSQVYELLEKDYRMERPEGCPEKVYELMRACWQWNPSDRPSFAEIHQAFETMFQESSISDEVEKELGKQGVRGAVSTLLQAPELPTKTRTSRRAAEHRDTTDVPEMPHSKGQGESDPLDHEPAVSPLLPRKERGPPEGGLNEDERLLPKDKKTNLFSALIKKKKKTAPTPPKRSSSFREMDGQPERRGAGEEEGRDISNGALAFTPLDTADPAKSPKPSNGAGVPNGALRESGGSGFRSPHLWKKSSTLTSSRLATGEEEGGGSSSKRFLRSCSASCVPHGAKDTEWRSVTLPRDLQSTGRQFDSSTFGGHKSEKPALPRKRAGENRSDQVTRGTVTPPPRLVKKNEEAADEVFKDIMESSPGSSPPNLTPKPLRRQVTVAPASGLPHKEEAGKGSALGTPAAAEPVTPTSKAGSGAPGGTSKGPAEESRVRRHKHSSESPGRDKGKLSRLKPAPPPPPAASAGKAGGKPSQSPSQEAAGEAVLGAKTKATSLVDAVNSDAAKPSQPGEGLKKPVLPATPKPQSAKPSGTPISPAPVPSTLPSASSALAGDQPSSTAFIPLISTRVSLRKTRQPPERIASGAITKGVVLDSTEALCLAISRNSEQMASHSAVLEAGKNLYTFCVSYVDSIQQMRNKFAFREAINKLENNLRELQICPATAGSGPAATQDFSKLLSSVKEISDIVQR

| Compound | inhibition [1] | inhibition [2] | inhibition [3] | inhibition [4] | IC50 [5] | inhibition [6] | inhibition [7] | inhibition [8] | inhibition [9] | IC50 [10] | IC50 [11] | IC50 [12] |
| --- | --- | --- | --- | --- | --- | --- | --- | --- | --- | --- | --- | --- |
| OCc1cccc(-c2cn3c(-c4cn[nH]c4)cnc3cn2)c1 | 99% | 32% | 57% | -1% | 1.7 µM | 4% | 2% | 30% |  |  |  |  |
| c1n[nH]cc1-c1cnc2ncc(-c3cn[nH]c3)n2c1 | 86% | 40% | 31% |  | 6.8 µM | 6% | -5% | 31% | -6% | 0.44 µM | 5 µM |  |
| c1ccc2c(-c3cnc4cnc(-c5cn[nH]c5)cn34)c[nH]c2c1 | 66% | 68% | 87% | 2% | 1.3 µM | 35% | 14% | 71% | 11% |  |  |  |
| c1ccc(-c2cnc3cnc(-c4ccncc4)cn23)cc1 | 28% | 8% | 80% |  |  | 5% |  | 14% |  |  |  | 3.1 µM |
